Measured values published in patent EP4782450A1, “NOVEL SKELETAL DERIVATIVE EFFECTIVE FOR HER2 MUTATION, AND PHARMACEUTICAL COMPOSITION COMPRISING SAME” (Hanmi Pharm. Co., Ltd., priority 2023, dated 2025).

Legend:
[1] = system: wild-type EGFR overexpressing Ba/F3 cells; test: Growth inhibition of Ba/F3 cells engineered to overexpress wild-type EGFR (CellTiter-Glo luminescence); format: cell-based; conditions: Mus musculus, BaF3, 72 hours, concentrations 10000 to 8 nM, read-out: Ba/F3 EGFR^WT GI50 class
Description: (§1) Experimental Example: Growth inhibition of Ba/F3 HER2 A775insYVMA and wild-type Ba/F3 cells
(§2) In this Experimental Example, the compounds obtained in Examples 1 to 92 were evaluated for their ability to inhibit growth of cells harboring either the HER2 A775insYVMA mutation or wild-type EGFR. For this purpose, Ba/F3 cells (ATCC, USA) were genetically engineered to overexpress either HER2 A775_G776insYVMA or wild-type EGFR, and the growth of these engineered Ba/F3 cells were monitored in the presence of the compounds described in the Examples to evaluate their effects on growth inhibition.
(§3) Specifically, culture flasks of the engineered Ba/F3 cells suspended in RPMI 1640 medium supplemented with 10% fetal bovine serum (FBS) and 1% penicillin/streptomycin (Gibco BRL, USA) were placed in a cell incubator and incubated at 37°C and 5% CO2 level to allow them to reach a stable logarithmic growth phase. The cells were then harvested by centrifugation to remove the old media and placed into a 96-well plate by dividing them into 100 µL aliquots per well at a dilution of 1×10^5 cells/mL in fresh media. Each of the compounds prepared in the preceding Examples were dissolved in 99.5% (cell culture grade) dimethylsulfoxide (DMSO) to prepare a stock solution of 10 mM concentration, which were serially diluted in the culture medium to final concentrations of 1000, 200, 40, 8, 1.6 and 0.32 nM for HER2 A775insYVMA Ba/F3 cells and concentrations of 10000, 5000, 1000, 200, 40 and 8 nM for wild-type EGFR overexpressing Ba/F3 cells.
(§4) To each aliquot of cells in the 96-well plate, a 50 µL test solution comprising one of the compounds was added to result in each well a 150 µL volume of cells with a compound in a final concentration ranging from 10 µM to 0.32 nM. The Ba/F3 cells treated with the test solution were incubated for 72 hours at 37°C and 5% CO2 level and underwent a 30-minute acclimation by placing the 96-well plate carrying the cells in ambient temperature. Thereafter, to each well was added 50 µL CellTiter-Glo® Luminescent Cell Assay Reagent (CTG, Promega, USA). After allowing 10 minutes to stabilize the signal, luminescence intensity was measured using a microplate reader. The half-maximal growth inhibition concentration (GI50) was calculated from the luminescence readout of the test compounds with the difference between the initial and final cell densities for the well untreated with a compound set at 100% growth. Nonlinear regression analysis based on log[inhibitor] vs. normalized response mode of the Graph Prism software was used for calculating GI50 for each compound, which are summarized in Table 6. The calculated GI50 values are classified in Table 6 into four categories: A for GI50 values less than 100 nM, B for GI50 values more than 100 nM but less than 1,000 nM, C for GI50 values more than 1,000 nM but less than 5,000 nM, and D for GI50 values of more than 5,000 nM.

[2] = system: Ba/F3 HER2 A775insYVMA; test: Growth inhibition of Ba/F3 cells engineered to overexpress HER2 A775_G776insYVMA (CellTiter-Glo luminescence); format: cell-based; conditions: Mus musculus, BaF3, 72 hours, concentrations 1000 to 0.32 nM, read-out: Ba/F3 HER2^YVMA GI50 class
Description: as §1, §2, §3, §4

Row | Compound | GI50 [1] [µM] | GI50 [2] [µM]
1 | C=CC(=O)N(C)C/C=C/c1ncc2ncnc(Nc3ccc(Oc4ccc5c(c4)ncn5C)c(C)c3)c2n1 [Example 24, (E)-N-methyl-N-(3-(8-((3-methyl-4-((1-methyl-1H-benzo[d]imidazol-5-yl)oxy)phenyl)amino)pyrimido[5,4-d]pyrimidin-2-yl)allyl)acrylamide] | 1 to 5 | < 0.1
2 | C=CC(=O)N(C)C/C=C/c1ccc2ncnc(Nc3ccc(Oc4ccc5c(c4)ncn5C)c(Cl)c3)c2n1 [Example 25, (E)-N-(3-(4-((3-chloro-4-((1-methyl-1H-benzo[d]imidazol-5-yl)oxy)phenyl)amino)pyrido[3,2-d]pyrimidin-6-yl)allyl)-N-methylacrylamide] | 1 to 5 | < 0.1
3 | C=CC(=O)N(C)CC/C=C/c1ccc2ncnc(Nc3ccc(Oc4ccc5c(c4)ncn5C)c(C)c3)c2n1 [Example 26, (E)-N-methyl-N-(4-(4-((3-methyl-4-((1-methyl-1H-benzo[d]imidazol-5-yl)oxy)phenyl)amino)pyrido[3,2-d]pyrimidin-6-yl)but-4-en-1-yl)acrylamide] | 1 to 5 | < 0.1
4 | C=CC(=O)N1CCCC(/C=C/c2ccc3ncnc(Nc4ccc(Oc5ccc6c(c5)ncn6C)c(C)c4)c3n2)C1 (stereo not shown) [Example 27, (E)-1-(3-(2-(4-((3-methyl-4-((1-methyl-1H-benzo[d]imidazol-5-yl)oxy)phenyl)amino)pyrido[3,2-d]pyrimidin-6-yl)vinyl)piperidin-1-yl)prop-2-en-1-one] | 1 to 5 | 0.1 to 1
5 | C=CC(=O)N1CC(/C=C/c2ccc3ncnc(Nc4ccc(Oc5ccc6c(c5)ncn6C)c(C)c4)c3n2)C1 [Example 28, (E)-1-(3-(2-(4-((3-methyl-4-((1-methyl-1H-benzo[d]imidazol-5-yl)oxy)phenyl)amino)pyrido[3,2-d]pyrimidin-6-yl)vinyl)azetidin-1-yl)prop-2-en-1-one] | 1 to 5 | < 0.1
6 | C=CC(=O)N1CCC(/C=C/c2ccc3ncnc(Nc4ccc(Oc5ccc6c(c5)ncn6C)c(C)c4)c3n2)C1 (stereo not shown) [Example 29, (E)-1-(3-(2-(4-((3-methyl-4-((1-methyl-1H-benzo[d]imidazol-5-yl)oxy)phenyl)amino)pyrido[3,2-d]pyrimidin-6-yl)vinyl)pyrrolidin-1-yl)prop-2-en-1-one] | 1 to 5 | < 0.1
7 | C=CC(=O)N(C)C1(/C=C/c2ccc3ncnc(Nc4ccc(Oc5ccc6c(c5)ncn6C)c(C)c4)c3n2)CC1 [Example 30, (E)-N-methyl-N-(1-(2-(4-((3-methyl-4-((1-methyl-1H-benzo[d]imidazol-5-yl)oxy)phenyl)amino)pyrido[3,2-d]pyrimidin-6-yl)vinyl)cyclopropyl)acrylamide] | 0.1 to 1 | 0.1 to 1
8 | C/C=C/C(=O)N(C)C/C=C/c1ccc2ncnc(Nc3ccc(Oc4ccc5c(c4)ncn5C)c(C)c3)c2n1 [Example 31, (E)-N-methyl-N-((E)-3-(4-((3-methyl-4-((1-methyl-1H-benzo[d]imidazol-5-yl)oxy)phenyl)amino)pyrido[3,2-d]pyrimidin-6-yl)allyl)but-2-enamide] | 1 to 5 | 0.1 to 1
9 | Cc1cc(Nc2ncnc3ccc(/C=C/CN(C)C(=O)/C=C/CN(C)C)nc23)ccc1Oc1ccc2c(c1)ncn2C [Example 32, (E)-4-(dimethylamino)-N-methyl-N-((E)-3-(4-((3-methyl-4-((1-methyl-1H-benzo[d]imidazol-5-yl)oxy)phenyl)amino)pyrido[3,2-d]pyrimidin-6-yl)allyl)but-2-enamide] | > 5 | 0.1 to 1
10 | C=CC(=O)NC/C=C/c1ccc2ncnc(Nc3ccc(Oc4ccc5c(c4)ncn5C)c(C)c3)c2n1 [Example 33, (E)-N-(3-(4-((3-methyl-4-((1-methyl-1H-benzo[d]imidazol-5-yl)oxy)phenyl)amino)pyrido[3,2-d]pyridin-6-yl)allyl)acrylamide] | 1 to 5 | < 0.1
11 | C=CC(=O)NC/C=C/c1ccc2ncnc(Nc3ccc(Oc4cnc5c(c4)ncn5C)c(C)c3)c2n1 [Example 34, (E)-N-(3-(4-((3-methyl-4-((3-methyl-3H-imidazo[4,5-b]pyridin-6-yl)oxy)phenyl)amino)pyrido[3,2-d]pyrimidin-6-yl)allyl)acrylamide] | > 5 | < 0.1
12 | C=CC(=O)NC/C=C/c1ccc2ncnc(Nc3ccc(Oc4ccc5c(c4)ncn5C)c(C)c3F)c2n1 [Example 35, (E)-N-(3-(4-((2-fluoro-3-methyl-4-((1-methyl-1H-benzo[d]imidazol-5-yl)oxy)phenyl)amino)pyrido[3,2-d]pyrimidin-6-yl)allyl)acrylamide] | > 5 | < 0.1
13 | C=CC(=O)NC/C=C/c1ccc2ncnc(Nc3ccc(Oc4ccc5c(c4)ncn5C)c(C)c3Cl)c2n1 [Example 36, (E)-N-(3-(4-((2-chloro-3-methyl-4-((1-methyl-1H-benzo[d]imidazol-5-yl)oxy)phenyl)amino)pyrido[3,2-d]pyrimidin-6-yl)allyl)acrylamide] | > 5 | < 0.1
14 | C=CC(=O)NC/C=C/c1ccc2ncnc(Nc3ccc(Oc4ccn5nccc5c4)c(C)c3)c2n1 [Example 37, (E)-N-(3-(4-((3-methyl-4-(pyrazolo[1,5-a]pyridin-5-yloxy)phenyl)amino)pyrido[3,2-d]pyrimidin-6-yl)allyl)acrylamide] | < 0.1 | 0.1 to 1
15 | C=CC(=O)NC/C=C/c1ccc2ncnc(Nc3ccc(Oc4ccn5ncnc5c4)c(C)c3)c2n1 [Example 38, (E)-N-(3-(4-((4-([1,2,4]triazolo[1,5-a]pyridin-7-yloxy)-3-methylphenyl)amino)pyrido[3,2-d]pyrimidin-6-yl)allyl)acrylamide] | 0.1 to 1 | < 0.1
16 | C=CC(=O)NC/C=C/c1ccc2ncnc(Nc3ccc(Oc4ccn5ccnc5c4)c(C)c3)c2n1 [Example 39, (E)-N-(3-(4-((4-(imidazo[1,2-a]pyridin-7-yloxy)-3-methylphenyl)amino)pyrido[3,2-d]pyrimidin-6-yl)allyl)acrylamide] | 0.1 to 1 | < 0.1
17 | Cc1cc(Nc2ncnc3ccc(/C=C/CNC(=O)/C=C/CN(C)C)nc23)ccc1Oc1ccc2c(c1)ncn2C [Example 40, (E)-4-(dimethylamino)-N-((E)-3-(4-((3-methyl-4-((1-methyl-1H-benzo[d]imidazol-5-yl)oxy)phenyl)amino)pyrido[3,2-d]pyrimidin-6-yl)allyl)but-2-enamide] | > 5 | < 0.1
18 | Cc1c(Oc2ccc3c(c2)ncn3C)ccc(Nc2ncnc3ccc(/C=C/CNC(=O)/C=C/CN(C)C)nc23)c1F [Example 41, (E)-4-(dimethylamino)-N-((E)-3-(4-((2-fluoro-3-methyl-4-((1-methyl-1H-benzo[d]imidazol-5-yl)oxy)phenyl)amino)pyrido[3,2-d]pyrimidin-6-yl)allyl)but-2-enamide] | 1 to 5 | < 0.1
19 | C=CC(=O)N(C)C/C=C/c1ccc2ncnc(Nc3ccc(Oc4ccc5c(c4)ncn5C)c(C)c3F)c2n1 [Example 42, (E)-N-(3-(4-((2-fluoro-3-methyl-4-((1-methyl-1H-benzo[d]imidazol-5-yl)oxy)phenyl)amino)pyrido[3,2-d]pyrimidin-6-yl)allyl)-N-methylacrylamide] | 1 to 5 | < 0.1
20 | C=CC(=O)N(C)C/C=C/c1ccc2ncnc(Nc3ccc(Oc4cnc5c(c4)ncn5C)c(C)c3)c2n1 [Example 43, (E)-N-methyl-N-(3-(4-((3-methyl-4-((3-methyl-3H-imidazo[4,5-b]pyridin-6-yl)oxy)phenyl)amino)pyrido[3,2-d]pyrimidin-6-yl)allyl)acrylamide] | 1 to 5 | < 0.1
21 | C=CC(=O)N1CC(/C=C/c2ccc3ncnc(Nc4ccc(Oc5cnc6c(c5)ncn6C)c(C)c4)c3n2)C1 [Example 44] | > 5 | < 0.1
22 | C=CC(=O)N1CC(/C=C/c2ccc3ncnc(Nc4cc(C)c(Oc5ccc6c(c5)ncn6C)cc4F)c3n2)C1 [Example 45] | > 5 | < 0.1
23 | C=CC(=O)N1CC(/C=C/c2ccc3ncnc(Nc4ccc(Oc5ccc6c(c5)ncn6C)c(C)c4F)c3n2)C1 [Example 46] | 1 to 5 | < 0.1
